Test results from patent US11352604B2, “Method of making cardiomyocytes from human pluripotent cells” (Wisconsin Alumni Research Foundation, priority 2016, dated 2022).

Legend:
Format in all cases: cell-based, human
DBT, ATP5F1, SLC25A4 = assay: Quantitative immunostaining of upregulated metabolic proteins; conditions: hPSC-CMs from pI:C-treated vs untreated progenitors
Description: For internal antigens, cells were rinsed of media two times in PBS, fixed for 10 minutes in 4% paraformaldehyde at RT, rinsed three times again in PBS, then blocked for 1 hour at room temperature (RT) in Licor blocking buffer containing 0.2% Triton x-100 (Sigma). Blocking solution was aspirated and antibodies added overnight at 4° C. in fresh blocking/permeabilization solution. Antibodies used were mouse cardiac troponin T (Thermo Fisher Scientific, 1:200), rabbit WT1 (Abcam 1:200), mouse smooth muscle myosin heavy chain (Abcam, 1:200), goat Jag1 c-terminal domain (1:200 Abcam), MMP1 (Abcam, 1:200), mouse cardiac actin (Sigma, 1:200), rabbit SLC25A4 (Proteintech, 1:100), rabbit DBT (Proteintech, 1:100), rabbit ATP5F1 (Proteintech, 1:100), rabbit Irx4 (Abcam, 1:200), goat nkx2.5 (Santa Cruz, 1:50), mouse connexin 40 (Thermo Fisher Scientific, 1:200), and fibroblast-specific protein (Abcam, 1:100). After primary and secondary antibodies, cells were rinsed two times in PBS with 0.2% triton x-100. Donkey secondaries conjugated to Alexa Fluor dyes were used at 1:1000 and incubated at RT for 1 h. DAPI or Hoechst was used to visualize nuclei. Cells were imaged either on an EVOS system in wells (Thermo Fisher Scientific) or a Leica confocal microscope in cover glass or ibidi 8-well microslides. Image J was used to quantify cell area by outer boundaries of cTnT staining.

Jag1 = assay: Flow cytometry of day 5 progenitors for Jag1 and Notch2
Excerpt: Flow cytometry for live cell surface antigens was done on dissociated cells of the 19-9-11 iPS cell line with Thy1 biotin (1:200 Biolegend, with Life Technologies streptavidin direct conjugate at 1:1000) and SIRPα (1:200, Biolegend) in K20 and then analyzed at the UWCCC Flow Cytometry Laboratory using a BD LSRII Fortessa flow cytometer. For progenitor flow experiments, cells were dissociated as above for progenitor dissociation, centrifuged at 200×g, subjected to FACS to concentrate cells, and resuspended in 100 μL, of K2 media+rockI/Jag1 PE, BD Biosciences (1:20); Notch2 APC R&D Biosystems (1:10) and analyzed on either a BD FACSariaII cell sorter or BD LSRII Fortessa flow cytometer.

hPSC-CMs = assay: Optical action potential measurement (RH237)
Description: After hPSC-CM dissociation, day 30 to 60 lactate-purified hPSC-CMs from the 19-9-11 cell line were plated as 80 μL drops on areas of cover glass previously coated in drops of Synthemax® working solution of 80 μL (Corning) in the K20/2 dissociation and replating technique described above. After at least two days in K2 medium, the fast-equilibrating voltage-sensitive dye RH237 at 1 μM was added and live cells imaged in the cover glass in a Leica confocal microscope. Video files of individual cells were taken and filtered with the 50th FIR filter at a cutoff frequency of 128 Hz. The resulting action potentials were analyzed for rise time and voltage velocity in MATLAB. Individual cells were considered as replicates for statistical purposes and came from 4 cell preparations.

## polyinosinic-polycytidylic acid [pI:C]
DBT, ATP5F1, SLC25A4
  expression of DBT, ATP5F1 and SLC25A4: increased expression
Jag1
  number of Jag1 positive cells and median fluorescence signal-to-noise: increased
hPSC-CMs; day 30 hPSC-CMs from pI:C-treated vs untreated progenitors
  optical upstroke velocity (rise time): significantly faster
hPSC-CMs; spontaneous action potentials
  APD80: decrease
